Patent US8008346B2, “Chemotherapeutic agents for inhibition of protein translation” (The Royal University for the Advancement of Learning/McGill …, priority 2006, dated 2011)

How the values were obtained:
[1] = system: in vitro splicing reactions; test: In vitro splicing of AdML pre-mRNA in nuclear extracts; format: biochemical; details: 2 μM, 10 μM and 50 μM
Method: (§1) FIG. 8. Selective inhibition of eIF4A activity by hippuristanol. A. Hippuristanol inhibits eIF4AIf-mediated helicase activity. Unwinding reactions were performed with RNA-1/RNA-11 duplex and recombinant eIF4AIf or Ded1p. The presence of 50 μM hippuristanol in the reaction is indicated above the panel. […] Double-stranded RNA duplex and single-stranded RNA molecules are schematically represented to the left of the panel. […] In vitro splicing reactions were performed with the AdML pre-mRNAs as previously described (48). AdML pre-mRNA was incubated with nuclear extracts in the presence of increasing amounts of hippuristanol (2 μM [lane4], 10 μM [lane 5] and 50 μM [lane 6]). Reaction products were resolved on 15% polyacrylamide/8M urea gels and subjected to autoradiography. The position of migration of the pre-mRNA and spliced product is denoted to the right. C. Rescue of hippuristanol-induced inhibition with recombinant eIF4AIf. […] A graphical representation from three experiments is provided below. Translational efficiency was calculated relative to luciferase values obtained from control translations containing vehicle (0.5% DMSO).

[2] = target: T1, eIF4AIf (Mus musculus, UniProt P60843); test: Helicase (unwinding) assay with RNA-1/RNA-11 duplex; format: biochemical, murine; details: 50 μM
T1 construct: inferred only from the Ni-NTA purification; made in house; host or cells: Escherichia coli BL21 (DE3) codon+
T1 sequence (P60843 whole entry): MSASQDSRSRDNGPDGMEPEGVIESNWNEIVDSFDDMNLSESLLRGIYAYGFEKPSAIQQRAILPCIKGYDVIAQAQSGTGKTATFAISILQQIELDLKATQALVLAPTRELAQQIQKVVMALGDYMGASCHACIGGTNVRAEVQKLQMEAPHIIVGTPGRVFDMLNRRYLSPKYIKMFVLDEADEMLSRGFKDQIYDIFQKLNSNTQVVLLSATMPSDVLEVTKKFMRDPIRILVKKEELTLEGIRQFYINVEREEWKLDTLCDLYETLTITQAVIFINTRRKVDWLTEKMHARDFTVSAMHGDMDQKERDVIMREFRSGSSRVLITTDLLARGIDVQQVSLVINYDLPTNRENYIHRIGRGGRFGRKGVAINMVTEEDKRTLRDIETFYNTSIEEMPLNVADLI
Method: as §1
(§2) Recombinant eIF4AI Purification and Assays. […] Quantifications were performed on a Fujix BAS2000 phosphoimager with a Fuji imaging screen. […]

[3] = target: T1, eIF4AIf; test: Crosslinking of oxidized 32P-cap labeled CAT mRNA to recombinant eIF4AIf (RNA binding); parameters: species or system murine; details: 50 μM
Method: (§3) FIG. 7. Effects of hippuristanol on ATP hydrolysis, ATP binding, and RNA binding activities of eIF4A. A. Hippuristanol inhibits eIF4AIf RNA-dependent ATPase activity. The rate of ATP hydrolysis as a function of hippuristanol concentration is plotted relative to the rate obtained in the presence of vehicle (0.5% DMSO). ATP hydrolysis was measured in the presence of 2.5 μM poly (U) and monitored by thin layer chromatography. […] Samples were resolved by SDS-PAGE and subjected to autoradiography. C. The RNA binding activity of eIF4AIf is inhibited by hippuristanol. Oxidized ^32P-cap labeled CAT mRNA was incubated with recombinant eIF4AIf in the absence (lane 2) or presence of ATP (lanes 1, 3-6), 0.6 mM m^7GDP (lane 3), 0.6 mM GDP (lane 4), or 50 μM hippuristanol (lane 6). Following treatment with RNase A, samples were resolved by SDS-PAGE and subjected to autoradiography. The asterisk denotes the position of migration of a ˜30 kDa contaminant in the recombinant eIF4AIf preparation used as an internal loading reference. D. The RNA binding activity of eIF4Ac is inhibited by hippuristanol. Oxidized ^32P-cap labeled CAT mRNA was incubated with 0.7 μg of native eIF4F in the absence (lane 1) or presence (lane 2) of 50 μM hippuristanol. […]
Ribosome Binding and mRNA Crosslinking. […] Fractions of 500 μl were collected and radioactivity was determined by scintillation counting. […]

[4] = target: T2, eIF4Ac and eIF4B (Homo sapiens, UniProt P60842); test: Chemical crosslinking of initiation factors to 32P cap-labeled mRNA; format: binding; details: 50 μM, in presence of ATP
T2 construct: Chemical crosslinking of initiation factor preparations to ^32P cap-labeled oxidized CAT mRNA
T2 sequence (P60842 whole entry): as the sequence (P60843 whole entry) above
T2 sequence (Q04637 whole entry partner): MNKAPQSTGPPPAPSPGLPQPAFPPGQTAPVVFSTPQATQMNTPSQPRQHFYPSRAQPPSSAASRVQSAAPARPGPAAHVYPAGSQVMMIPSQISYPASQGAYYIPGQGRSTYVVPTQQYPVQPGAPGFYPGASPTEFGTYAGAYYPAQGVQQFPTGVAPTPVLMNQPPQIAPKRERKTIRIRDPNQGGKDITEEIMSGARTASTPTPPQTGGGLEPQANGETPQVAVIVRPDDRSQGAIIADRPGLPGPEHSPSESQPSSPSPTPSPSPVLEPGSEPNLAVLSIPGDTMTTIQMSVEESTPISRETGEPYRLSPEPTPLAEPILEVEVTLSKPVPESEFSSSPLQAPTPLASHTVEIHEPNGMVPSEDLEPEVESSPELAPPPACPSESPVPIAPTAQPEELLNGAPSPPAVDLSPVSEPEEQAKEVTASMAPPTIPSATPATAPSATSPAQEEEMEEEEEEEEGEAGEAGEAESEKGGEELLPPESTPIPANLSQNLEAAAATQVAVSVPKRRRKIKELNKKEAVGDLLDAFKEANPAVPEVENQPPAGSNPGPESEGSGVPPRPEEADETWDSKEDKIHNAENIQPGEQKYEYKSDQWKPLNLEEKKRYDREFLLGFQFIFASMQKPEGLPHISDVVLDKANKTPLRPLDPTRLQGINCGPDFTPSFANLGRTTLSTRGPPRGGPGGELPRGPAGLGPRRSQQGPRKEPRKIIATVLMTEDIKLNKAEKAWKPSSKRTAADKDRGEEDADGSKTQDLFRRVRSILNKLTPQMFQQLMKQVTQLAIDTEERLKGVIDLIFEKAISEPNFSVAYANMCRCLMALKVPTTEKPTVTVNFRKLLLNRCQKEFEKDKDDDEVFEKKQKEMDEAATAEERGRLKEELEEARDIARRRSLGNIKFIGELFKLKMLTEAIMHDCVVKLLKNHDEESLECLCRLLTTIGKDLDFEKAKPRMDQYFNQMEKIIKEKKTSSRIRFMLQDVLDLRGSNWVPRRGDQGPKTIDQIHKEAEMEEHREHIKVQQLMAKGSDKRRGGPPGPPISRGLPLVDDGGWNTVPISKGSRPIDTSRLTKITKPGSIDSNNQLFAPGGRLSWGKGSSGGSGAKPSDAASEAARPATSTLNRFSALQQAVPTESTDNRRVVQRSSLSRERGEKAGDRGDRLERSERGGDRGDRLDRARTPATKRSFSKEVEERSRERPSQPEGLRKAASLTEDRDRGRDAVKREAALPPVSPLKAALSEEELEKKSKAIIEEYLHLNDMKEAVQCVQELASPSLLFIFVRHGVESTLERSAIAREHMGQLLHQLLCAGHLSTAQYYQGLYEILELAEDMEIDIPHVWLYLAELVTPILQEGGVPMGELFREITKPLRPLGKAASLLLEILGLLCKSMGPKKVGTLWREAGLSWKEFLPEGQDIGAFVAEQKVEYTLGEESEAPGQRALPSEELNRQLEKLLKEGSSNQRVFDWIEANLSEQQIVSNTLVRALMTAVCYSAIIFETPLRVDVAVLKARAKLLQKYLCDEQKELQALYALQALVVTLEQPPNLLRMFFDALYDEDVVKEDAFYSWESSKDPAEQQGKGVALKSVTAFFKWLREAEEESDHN
T2 sequence (P06730 whole entry partner): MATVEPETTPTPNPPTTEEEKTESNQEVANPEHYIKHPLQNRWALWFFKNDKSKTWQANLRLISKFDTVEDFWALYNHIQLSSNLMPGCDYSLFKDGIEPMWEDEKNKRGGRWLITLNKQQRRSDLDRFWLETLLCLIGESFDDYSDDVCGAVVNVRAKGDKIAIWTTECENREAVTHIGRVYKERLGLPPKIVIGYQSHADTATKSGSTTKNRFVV
Method: (§4) FIG. 6. Hippuristanol inhibits translation initiation. A. Hippuristanol inhibits 80S complex formation. ^32P-labeled CAT mRNA was incubated in rabbit reticulocyte lysate with cycloheximide (CHX) in the presence or absence of 50 μM hippuristanol. Complexes were resolved on glycerol gradients. Total counts recovered from each gradient and the percent mRNA bound in 80S complexes were: CAT mRNA/CHX [43,498 cpm, 22% binding] and CAT mRNA/CHX+Hipp. [45,279 cpm, 5.7% binding]. B. Hippuristanol inhibits crosslinking of eIF4Ac and eIF4B to capped mRNA. Initiation factors were chemically crosslinked to ^32P cap-labeled mRNA in the absence (lane 2) or presence of ATP (lanes 1, 3-6), 0.6 mM m^7GDP (lane 3), 0.6 mM GDP (lane 4), or 50 μM hippuristanol (lane 6). Following nuclease digestion, samples were resolved by SDS-PAGE and the gel subjected to autoradiography.
(§5) Ribosome Binding and mRNA Crosslinking. Ribosome binding assays were performed by incubating ^32P-labelled CAT mRNA in rabbit reticulocyte lysate or wheat germ extracts in the presence of: 600 μM cycloheximide (CHX), 1 mM GMP-PNP, and/or 50 μM hippuristanol or vehicle for 10 min (33). […] Fractions of 500 μl were collected and radioactivity was determined by scintillation counting. […]

[5] = target: T1, eIF4AIf; test: RNA-dependent ATPase assay with recombinant eIF4AIf; format: biochemical, murine; details: 2.5 μM poly (U); relative to vehicle (0.5% DMSO)
Method: as §3, §2

[6] = system: 80S complex formation; test: Ribosome binding (80S complex formation) of 32P-labeled CAT mRNA in rabbit reticulocyte lysate; format: biochemical; details: CAT mRNA/CHX + 50 μM hippuristanol; CHX alone 22% binding
Method: as §4, §5

C[C@H]1C[C@@]2(O[C@H]3C[C@H]4[C@@H]5CC[C@H]6C[C@H](O)CC[C@]6(C)[C@H]5[C@@H](O)C[C@]4(C)[C@H]3[C@@]2(C)O)OC1(C)C [Hippuristanol, hippuristanol]
in vitro splicing reactions [1]: does not inhibit | eIF4AIf-mediated helicase activity [2]: inhibits | RNA binding activity of eIF4AIf [3]: inhibited | crosslinking of eIF4Ac and eIF4B to capped mRNA [4]: inhibits | eIF4AIf RNA-dependent ATPase activity [5]: inhibits | percent mRNA bound in 80S complexes [6]: 5.7%
